# Laboratory results published in patent US7727989B2, “4-benzimidazol-2-yl-pyridazine-3-one-derivatives, production and use thereof in medicaments” (Sanofi-Aventis Deutschland GmbH, priority 2004, dated 2010).
# Target: human recombinant GSK-3β (Homo sapiens, UniProt P49841)
# Test: GSK-3β activity, AlphaScreen, primed glycogen synthase substrate peptide
# Type: biochemical
# Conditions: not given
# Experimental: Functional measurements to ascertain IC50 values:
# GSK-3β activity is measured using human recombinant GSK-3β and a primed (pre-phosphorylated) substrate peptide (derived from glycogen synthase and containing the phosphorylation sites 3a, b, and c) on the basis of the AlphaScreen technology in 384-well plate format (small volume plate, white, Greiner). […] After adding […] Donor beads (20 μg/ml) and […] antibody (anti-phosphoglycogen synthase 1:2000)-coated Acceptor beads (40 μg/ml) in AlphaScreen detection buffer (20 mM Hepes, pH 7.4, 10 mM MgCl, 40 mM EDTA, 1 mM DTT, 0.1 mg/ml BSA), plates are incubated at room temperature (in the dark) overnight and then placed in a reader (Alphaquest or Fusion) to measure final fluorescence. IC50 values are calculated from the fitted curve corrected for bank values (absence of GSK-3β) and performed in triplicate.
# Chain of human recombinant GSK-3β (P49841 whole entry): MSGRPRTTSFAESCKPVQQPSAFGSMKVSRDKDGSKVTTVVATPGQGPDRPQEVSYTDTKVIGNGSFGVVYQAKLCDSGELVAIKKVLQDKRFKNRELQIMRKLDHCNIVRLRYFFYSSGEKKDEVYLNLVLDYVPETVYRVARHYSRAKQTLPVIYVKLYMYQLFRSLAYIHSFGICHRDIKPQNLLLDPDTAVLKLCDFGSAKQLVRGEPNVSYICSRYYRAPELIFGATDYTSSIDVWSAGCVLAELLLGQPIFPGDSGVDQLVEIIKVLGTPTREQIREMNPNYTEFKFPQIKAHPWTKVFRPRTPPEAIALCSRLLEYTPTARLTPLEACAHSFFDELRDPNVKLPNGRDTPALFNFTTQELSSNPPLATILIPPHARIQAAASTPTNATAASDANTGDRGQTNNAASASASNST
row,IC50,SMILES
1,157 nM,"Cn1cc(-c2cc(-c3nc4ccccc4[nH]3)c(=O)[nH]n2)ccc1=O [Example 50, 4-(1H-Benzimidazol-2-yl)-6-(1-methyl-6-oxo-1,6-dihydropyridin-3-yl)-2H-pyridazin-3-one]"

# Same assay, conditions: human recombinant GSK-3β 0.18 nM, biot. phospho-glycogen synthase peptide 34 nM, 10 μM ATP, 60 min room temperature, triplicate; read-out: IC50
row,SMILES,IC50
1,"CN1CCN(Cc2ccc3nc(-c4cc(-c5ccncc5)n[nH]c4=O)[nH]c3c2)CC1 [Example 42, 4-[6-(4-Methylpiperazin-1-ylmethyl)-1H-benzimidazol-2-yl]-6-pyridin-4-yl-2H-pyridazin-3-one]",7 nM
2,"Cc1cc(-c2cc(-c3nc4ccc(C(F)(F)F)cc4[nH]3)c(=O)[nH]n2)cc(C)c1O [Example 25, 6-(4-Hydroxy-3,5-dimethylphenyl)-4-(6-tri-fluoromethyl-1H-benzimidazol-2-yl)-2H-pyridazin-3-one]",56 nM

# Continued, values first:
row,IC50,SMILES
1,50 nM,"O=c1[nH]nc(-c2ccnc(NC3CC3)n2)cc1-c1nc2ccccc2[nH]1 [Example 58, 4-(1H-Benzimidazol-2-yl)-6-(2-cyclopropylaminopyrimidin-4-yl)-2H-pyridazin-3-one]"
2,16 nM,"O=c1[nH]nc(-c2ccncc2)cc1-c1nc2cc(C(F)(F)F)ccc2[nH]1 [Example 6, 4-(6-Tri-fluoromethyl-1H-benzimidazol-2-yl)-6-pyridin-4-yl-2H-pyridazin-3-one]"
3,42 nM,"CN1CCN(Cc2ccc3nc(-c4cc(-c5ccccc5)n[nH]c4=O)[nH]c3c2)CC1 [Example 53, 4-[6-(4-Methylpiperazin-1-ylmethyl)-1H-benzimidazol-2-yl]-6-phenyl-2H-pyridazin-3-one]"
4,63 nM,"O=c1[nH]nc(-n2ccnc2)cc1-c1nc2ccccc2[nH]1 [Example 68, 4-(1H-Benzimidazol-2-yl)-6-imidazol-1-yl-2H-pyridazin-3-one]"
5,57 nM,"N#Cc1ccc2[nH]c(-c3cc(-c4ccncc4)n[nH]c3=O)nc2c1 [Example 21, 4-(5-Cyano-1H-benzimidazol-2-yl)-6-pyridin-4-yl-2H-pyridazin-3-one]"
6,32 nM,"O=c1[nH]nc(-c2ccncc2)cc1-c1nc2ccncc2[nH]1 [Example 38, 4-(3H-imidazol[4,5-c]pyridin-2-yl)-6-pyridin-4-yl-2H-pyridazin-3-one]"
7,28 nM,"O=c1[nH]nc(-c2ccsc2)cc1-c1nc2ccccc2[nH]1 [Example 46, 4-(1H-Benzimidazol-2-yl)-6-thiophen-3-yl-2H-pyridazin-3-one]"

# Tested on: not given
# Test: not given
# Conditions: not given
row,SMILES,melting point
1,"CCCCNc1nccc(-c2cc(-c3nc4ccc(C(F)(F)F)cc4[nH]3)c(=O)[nH]n2)n1 [Example 27, 6-(2-Butylaminopyrimidin-4-yl)-4-(6-tri-fluoromethyl-1H-benzimidazol-2-yl)-2H-pyridazin-3-one]",288 °C
2,"CNc1nccc(-c2cc(-c3nc4cc(Cl)ccc4[nH]3)c(=O)[nH]n2)n1 [Example 14, 4-(5-Chloro-1H-benzimidazol-2-yl)-6-(2-methylaminopyrimidin-4-yl)-2H-pyridazin-3-one]",> 300 °C (dec.)
3,"O=C(NCCNC1CCCCC1)c1ccc2nc(-c3cc(-c4ccncc4)n[nH]c3=O)[nH]c2c1 [Example 8, 2-(3-Oxo-6-pyridin-4-yl-2,3-dihydropyridazin-4-yl)-1H-benzimidazole-5-carboxylic acid (2-cyclohexylaminoethyl)amide]",271 °C
4,"O=C(NCCCO)c1ccc2nc(-c3cc(-c4ccncc4)n[nH]c3=O)[nH]c2c1 [Example 10, 2-(3-Oxo-6-pyridin-4-yl-2,3-dihydropyridazin-4-yl)-1H-benzimidazole-5-carboxylic acid (3-hydroxypropyl)amide]",> 300 °C (dec.)
5,"CCCCNc1nccc(-c2cc(-c3nc4ccc(Cl)cc4[nH]3)c(=O)[nH]n2)n1 [Example 26, 6-(2-Butylaminopyrimidin-4-yl)-4-(6-chloro-1H-benzimidazol-2-yl)-2H-pyridazin-3-one]",305 °C
6,"Cc1cc(-c2nc3cc(Cl)ccc3[nH]2)c(=O)[nH]n1 [Example 11, 4-(5-Chloro-1H-benzimidazol-2-yl)-6-methyl-2H-pyridazin-3-one]",> 300 °C (dec.)
7,"Cc1cc2nc(-c3cc(-c4ccncc4)n[nH]c3=O)[nH]c2cc1C [Example 18, 4-(5,6-Dimethyl-1H-benzimidazol-2-yl)-6-pyridin-4-yl-2H-pyridazin-3-one]",> 350 °C (dec.)
8,"CN1CCN(c2ccc3[nH]c(-c4cc(-c5ccncc5)n[nH]c4=O)nc3c2)CC1 [Example 19, 4-[5-(4-Methylpiperazin-1-yl)-1H-benzimidazol-2-yl]-6-pyridin-4-yl-2H-pyridazin-3-one]",> 350 °C (dec.)
9,"CN1CCN(CCCNC(=O)c2ccc3nc(-c4cc(-c5ccncc5)n[nH]c4=O)[nH]c3c2)CC1 [Example 9, 2-(3-Oxo-6-pyridin-4-yl-2,3-dihydropyridazin-4-yl)-1H-benzimidazole-5-carboxylic acid [3-(4-methylpiperazin-1-yl)propyl]amide]",> 300 °C

# Continued, values first:
row,melting point,SMILES
1,> 350 °C (dec.),"O=c1[nH]nc(-c2ccncc2)cc1-c1nc2ccc(Br)cc2[nH]1 [Example 22, 4-(5-Bromo-1H-benzimidazol-2-yl)-6-pyridin-4-yl-2H-pyridazin-3-one]"
2,> 300 °C (dec.),"COc1ccc2nc(-c3cc(-c4ccncc4)n[nH]c3=O)[nH]c2c1 [Example 7, 4-(6-Methoxy-1H-benzimidazol-2-yl)-6-pyridin-4-yl-2H-pyridazin-3-one]"
3,> 300 °C (dec.),"O=c1[nH]nc(-c2ccncc2)cc1-c1nc2cc(Cl)ccc2[nH]1 [Example 5, 4-(6-Chloro-1H-benzimidazol-2-yl)-6-pyridin-4-yl-2H-pyridazin-3-one]"
4,> 300 °C (dec.),"O=c1[nH]nc(-c2ccncc2)cc1-c1nc2cc(C(F)(F)F)ccc2[nH]1 [Example 6, 4-(6-Tri-fluoromethyl-1H-benzimidazol-2-yl)-6-pyridin-4-yl-2H-pyridazin-3-one]"
5,> 350 °C (dec.),"O=c1[nH]nc(-c2ccncc2)cc1-c1nc2ccccc2[nH]1 [Example 28, 4-(1H-Benzimidazol-2-yl)-6-pyridin-4-yl-2H-pyridazin-3-one]"
6,> 350 °C (dec.),"O=c1[nH]nc(-c2ccncc2)cc1-c1nc2cc(F)ccc2[nH]1 [Example 20, 4-(5-Fluoro-1H-benzimidazol-2-yl)-6-pyridin-4-yl-2H-pyridazin-3-one]"
7,> 350 °C (dec.),"Cc1cccc2nc(-c3cc(-c4ccncc4)n[nH]c3=O)[nH]c12 [Example 17, 4-(7-Methyl-1H-benzimidazol-2-yl)-6-pyridin-4-yl-2H-pyridazin-3-one]"
8,> 350 °C (dec.),"N#Cc1ccc2[nH]c(-c3cc(-c4ccncc4)n[nH]c3=O)nc2c1 [Example 21, 4-(5-Cyano-1H-benzimidazol-2-yl)-6-pyridin-4-yl-2H-pyridazin-3-one]"
